Reference: publication PMC6985722 (Antimicrobial Agents and Chemotherapy, 2020)
Where “and” joins values, the source holds several entries; their conditions need not be identical. Equal values may be shown once.

What was measured:
[1] = RSV human challenge study: safety (adverse events, clinical and laboratory tests, ECG); format: in vivo; conditions: for TEAE Abdominal discomfort / TEAE Abdominal distention / TEAE Abdominal pain (Table 4) / TEAE Abdominal pain (Table S4, listed apart from Abdominal pain lower) / TEAE Abdominal pain lower / TEAE Blood and lymphatic system disorders / TEAE Cardiac disorders / TEAE Catheter site erythema / TEAE Catheter site paraesthesia / TEAE Decreased appetite / TEAE Diarrhea / TEAE Dizziness / TEAE Epistaxis / TEAE Eye disorders / TEAE Eye pain / TEAE Food poisoning / TEAE Gastroenteritis / TEAE Gastrointestinal disorders / TEAE General disorders and administration site conditions / TEAE Headache / TEAE Hypoaesthesia / TEAE Infections and infestations / TEAE Injury, poisoning and procedural complications / TEAE Joint injury / TEAE Lip dry / TEAE Lymphadenopathy / TEAE Metabolism and nutrition disorders / TEAE Musculoskeletal and connective tissue disorders / TEAE Musculoskeletal pain / TEAE Myalgia / TEAE Myocarditis / TEAE Nausea / TEAE Nervous system disorders / TEAE Ocular hyperemia / TEAE Oropharyngeal pain / TEAE Pain in jaw / TEAE Pyrexia / TEAE Rash / TEAE Respiratory, thoracic and mediastinal disorders / TEAE Rhinitis / TEAE Skin abrasion / TEAE Skin and subcutaneous tissue disorders / TEAE Tension headache / TEAE Total / TEAE URTI / TEAE Vessel puncture site erythema / TEAE Viral URTI / TEAE Vomiting: safety analysis set
From the text: Twice-daily collection of nasal wash samples allowed measurement of viral load via RT-qPCR and quantitative culture. RT-qPCR results were reported as PFUe/ml when the standard curve included in each assay contained a known infectious amount (PFU) of RSV, as described previously ([30]). Subjects reported the occurrence and severity of symptoms three times daily using a 10-item subject symptom diary card as previously reported ([12]) (see Supplemental Methods). Throughout the quarantine period, used tissues were collected and weighed daily, and total nasal mucus weight was recorded. PK assessments were based on venous blood samples. Safety assessments included measurement of vital signs, standard 12-lead ECG recordings, spirometry, a complete physical examination, and a respiratory-directed physical examination. AEs were monitored daily, coded according to the Medical Dictionary for Regulatory Activities Version 20.0, and graded according to the National Cancer Institute Common Terminology Criteria for Adverse Events Version 4.0 (see Supplemental Methods for further details).
The primary efficacy analysis population (the ITT-I analysis set) comprised all randomized subjects who received challenge virus and at least one dose of study drug and met the criterion for laboratory-confirmed RSV infection (presence of detectable RSV). Sensitivity analyses were based on a subset of the ITT-I population who had first detectable RSV infection prior to study drug administration (the ITT-A analysis set) and a fixed time period of 6.5 days (comprising data for all subjects for 6.5 days of evaluation after the first dose, regardless of the staggered commencement of dosing). The safety analysis set comprised all subjects who received challenge virus; the PK analysis set comprised all subjects who received the challenge virus and provided at least one postdose PK result. […]
unexpected, in the opinion of the investigator, were captured as AEs. Following the viral challenge, upper and lower respiratory tract symptoms identified by the directed physical examination were expected, presumed to represent virus infection consequent to viral challenge and not captured as an AE unless they met the criteria for an AE and were deemed clinically significant in the opinion of the investigator. AEs were monitored daily from screening (day –2) through to the follow -up visit (day 28) and coded to system organ class and preferred term according to the Medical Dictionary for Regulatory Activities Version
20.0. AEs were graded according to the National Cancer Institute Common Terminology Criteria for Adverse Events Version 4.0, andthe relationship to the investigational medical product or to challenge virus was recorded. An AE with an onset date/time after […]
that were considered by the investigator to be causally related to challenge virus can be included in the analysis of AEs.
Outcomes. Safety outcomes included the occurrence of AEs. PK outcomes included the maximum plasma concentration, the minimum plasma concentration, the time to maximum plasma concentration, and the area under the plasma concentration-time curve with a dosing interval, calculated by the linear trapezoidal rule.

[2] = 76 healthy adult males; single and multiple ascending dose; cited from earlier work

NCc1ccc2c(c1)nc(CN1C(=O)C3(CC3)c3ccc(F)cc31)n2CCCC(F)(F)F [RV521]
Grade 2 TEAEs, number of events ([1]; 200 mg): 2
Subjects with gastrointestinal TEAEs ([1]; 200 mg): 32%
Subjects with grade 2 TEAEs ([1]; 200 mg): 2 subjects
Treatment-emergent AEs, number of events ([1]; 200 mg): 19
Clinical or laboratory tests (vital signs, liver enzymes) vs placebo ([1]; 200 mg and 350 mg): No notable differences
ECG findings ([1]; 200 mg and 350 mg): no clinically significant ECG findings
TEAEs of grade ≥3 ([1]; 200 mg and 350 mg): no TEAEs of grade ≥3
TEAE Abdominal discomfort ([1]; 200 mg): 0 number of subjects (%)
TEAE Abdominal distention ([1]; 200 mg): 0 number of subjects (%)
TEAE Abdominal pain (Table 4) ([1]; 200 mg): 2 (9) No. of subjects (%)
TEAE Abdominal pain (Table S4, listed apart from Abdominal pain lower) ([1]; 200 mg): 2 (9) number of subjects (%)
TEAE Abdominal pain lower ([1]; 200 mg): 0 number of subjects (%)
TEAE Blood and lymphatic system disorders ([1]; 200 mg): 0 number of subjects (%)
TEAE Cardiac disorders ([1]; 200 mg): 0 number of subjects (%)
TEAE Catheter site erythema ([1]; 200 mg): 0 number of subjects (%)
TEAE Catheter site paraesthesia ([1]; 200 mg): 1 (5) number of subjects (%)
TEAE Decreased appetite ([1]; 200 mg): 1 (5) number of subjects (%)
TEAE Diarrhea ([1]; 200 mg): 3 (14) No. of subjects (%)
TEAE Dizziness ([1]; 200 mg): 1 (5) number of subjects (%)
TEAE Epistaxis ([1]; 200 mg): 1 (5) number of subjects (%)
TEAE Eye disorders ([1]; 200 mg): 0 number of subjects (%)
TEAE Eye pain ([1]; 200 mg): 0 number of subjects (%)
TEAE Food poisoning ([1]; 200 mg): 1 (5) number of subjects (%)
TEAE Gastroenteritis ([1]; 200 mg): 0 number of subjects (%)
TEAE Gastrointestinal disorders ([1]; 200 mg): 7 (32) number of subjects (%)
TEAE General disorders and administration site conditions ([1]; 200 mg): 1 (5) number of subjects (%)
TEAE Headache ([1]; 200 mg): 0 No. of subjects (%)
TEAE Hypoaesthesia ([1]; 200 mg): 1 (5) number of subjects (%)
TEAE Infections and infestations ([1]; 200 mg): 3 (14) number of subjects (%)
TEAE Injury, poisoning and procedural complications ([1]; 200 mg): 1 (5) number of subjects (%)
TEAE Joint injury ([1]; 200 mg): 0 number of subjects (%)
TEAE Lip dry ([1]; 200 mg): 0 number of subjects (%)
TEAE Lymphadenopathy ([1]; 200 mg): 0 number of subjects (%)
TEAE Metabolism and nutrition disorders ([1]; 200 mg): 1 (5) number of subjects (%)
TEAE Musculoskeletal and connective tissue disorders ([1]; 200 mg): 0 number of subjects (%)
TEAE Musculoskeletal pain ([1]; 200 mg): 0 number of subjects (%)
TEAE Myalgia ([1]; 200 mg): 0 number of subjects (%)
TEAE Myocarditis ([1]; 200 mg): 0 number of subjects (%)
TEAE Nausea ([1]; 200 mg): 2 (9) No. of subjects (%)
TEAE Nervous system disorders ([1]; 200 mg): 2 (9) number of subjects (%)
TEAE Ocular hyperemia ([1]; 200 mg): 0 number of subjects (%)
TEAE Oropharyngeal pain ([1]; 200 mg): 0 number of subjects (%)
TEAE Pain in jaw ([1]; 200 mg): 0 number of subjects (%)
TEAE Pyrexia ([1]; 200 mg): 0 number of subjects (%)
TEAE Rash ([1]; 200 mg): 0 No. of subjects (%)
TEAE Respiratory, thoracic and mediastinal disorders ([1]; 200 mg): 1 (5) number of subjects (%)
TEAE Rhinitis ([1]; 200 mg): 1 (5) No. of subjects (%)
TEAE Skin abrasion ([1]; 200 mg): 1 (5) number of subjects (%)
TEAE Skin and subcutaneous tissue disorders ([1]; 200 mg): 1 (5) number of subjects (%)
TEAE Tension headache ([1]; 200 mg): 0 number of subjects (%)
TEAE Total ([1]; 200 mg): 11 (50) number of subjects (%) and 11 number of subjects (%)
TEAE URTI ([1]; 200 mg): 2 (9) No. of subjects (%)
TEAE Vessel puncture site erythema ([1]; 200 mg): 0 number of subjects (%)
TEAE Viral URTI ([1]; 200 mg): 0 No. of subjects (%)
TEAE Vomiting ([1]; 200 mg): 1 (5) No. of subjects (%)
Grade 2 TEAEs, number of events ([1]; 350 mg): 4
Subjects with gastrointestinal TEAEs ([1]; 350 mg): 59%
Subjects with grade 2 TEAEs ([1]; 350 mg): 3 subjects
TEAE Abdominal discomfort ([1]; 350 mg): 1 (5) number of subjects (%)
TEAE Abdominal distention ([1]; 350 mg): 1 (5) number of subjects (%)
TEAE Abdominal pain (Table 4) ([1]; 350 mg): 5 (23) No. of subjects (%)
TEAE Abdominal pain (Table S4, listed apart from Abdominal pain lower) ([1]; 350 mg): 4 (18) number of subjects (%)
TEAE Abdominal pain lower ([1]; 350 mg): 1 (5) number of subjects (%)
TEAE Blood and lymphatic system disorders ([1]; 350 mg): 0 number of subjects (%)
TEAE Cardiac disorders ([1]; 350 mg): 0 number of subjects (%)
TEAE Catheter site erythema ([1]; 350 mg): 1 (5) number of subjects (%)
TEAE Catheter site paraesthesia ([1]; 350 mg): 0 number of subjects (%)
TEAE Decreased appetite ([1]; 350 mg): 0 number of subjects (%)
TEAE Diarrhea ([1]; 350 mg): 9 (41) No. of subjects (%)
TEAE Dizziness ([1]; 350 mg): 1 (5) number of subjects (%)
TEAE Epistaxis ([1]; 350 mg): 0 number of subjects (%)
TEAE Eye disorders ([1]; 350 mg): 0 number of subjects (%)
TEAE Eye pain ([1]; 350 mg): 0 number of subjects (%)
TEAE Food poisoning ([1]; 350 mg): 0 number of subjects (%)
TEAE Gastroenteritis ([1]; 350 mg): 1 (5) number of subjects (%)
TEAE Gastrointestinal disorders ([1]; 350 mg): 13 (59) number of subjects (%)
TEAE General disorders and administration site conditions ([1]; 350 mg): 1 (5) number of subjects (%)
TEAE Headache ([1]; 350 mg): 0 No. of subjects (%)
TEAE Hypoaesthesia ([1]; 350 mg): 0 number of subjects (%)
TEAE Infections and infestations ([1]; 350 mg): 5 (23) number of subjects (%)
TEAE Injury, poisoning and procedural complications ([1]; 350 mg): 0 number of subjects (%)
TEAE Joint injury ([1]; 350 mg): 0 number of subjects (%)
TEAE Lip dry ([1]; 350 mg): 1 (5) number of subjects (%)
TEAE Lymphadenopathy ([1]; 350 mg): 0 number of subjects (%)
TEAE Metabolism and nutrition disorders ([1]; 350 mg): 0 number of subjects (%)
TEAE Musculoskeletal and connective tissue disorders ([1]; 350 mg): 1 (5) number of subjects (%)
TEAE Musculoskeletal pain ([1]; 350 mg): 0 number of subjects (%)
TEAE Myalgia ([1]; 350 mg): 1 (5) number of subjects (%)
TEAE Myocarditis ([1]; 350 mg): 0 number of subjects (%)
TEAE Nausea ([1]; 350 mg): 12 (55) No. of subjects (%)
TEAE Nervous system disorders ([1]; 350 mg): 1 (5) number of subjects (%)
TEAE Ocular hyperemia ([1]; 350 mg): 0 number of subjects (%)
TEAE Oropharyngeal pain ([1]; 350 mg): 0 number of subjects (%)
TEAE Pain in jaw ([1]; 350 mg): 0 number of subjects (%)
TEAE Pyrexia ([1]; 350 mg): 0 number of subjects (%)
TEAE Rash ([1]; 350 mg): 0 No. of subjects (%)
TEAE Respiratory, thoracic and mediastinal disorders ([1]; 350 mg): 0 number of subjects (%)
TEAE Rhinitis ([1]; 350 mg): 2 (9) No. of subjects (%)
TEAE Skin abrasion ([1]; 350 mg): 0 number of subjects (%)
TEAE Skin and subcutaneous tissue disorders ([1]; 350 mg): 1 (5) number of subjects (%)
TEAE Tension headache ([1]; 350 mg): 0 number of subjects (%)
TEAE Total ([1]; 350 mg): 16 (73) number of subjects (%)
TEAE URTI ([1]; 350 mg): 0 No. of subjects (%)
TEAE Vessel puncture site erythema ([1]; 350 mg): 0 number of subjects (%)
TEAE Viral URTI ([1]; 350 mg): 2 (9) No. of subjects (%)
TEAE Vomiting ([1]; 350 mg): 2 (9) No. of subjects (%)
Treatment-related SAEs, deaths, or discontinuations due to AEs ([1]; any treatment group): No treatment-related serious adverse events (SAEs), deaths, or discontinuations due to AEs
Tolerability [2]: well tolerated
